# Patent US20230348376A1 (TEIJIN PHARMA LIMITED, priority 2020, published 2023)
# Experiments:
# [1] = Evaluation of brain penetration in mice (blood and brain concentration at brain Cmax); type: in vivo, mouse; conditions: 1 mg/kg single oral dose, C57BL/6J mice; for Concentration in blood (mean ± SD) at brain Cmax / Concentration in brain (mean ± SD) at brain Cmax: n=3; for Kp: male, C57BL/6J, mouse, brain/plasma, po, 1 mg/kg, read-out: Concentration in brain/in blood ratio at brain Cmax
# Method: The administration solution was administered orally to C57BL/6J mice (8 weeks old, male, n=3) at a single dose (1 mg/kg). Mice were euthanized at 6 points of 0.25, 0.5, 1, 2, 4, and 8 hours after administration, and plasma and brain sampling were performed. After preparing a homogenate from the collected brain using Tissue Lyser II (QIAGEN #85300), acetonitrile was added to the homogenate and the homogenate was centrifuged (12000 rpm, 5 minutes) to extract the administered test compound contained in the brain. Similarly, the plasma was subjected to addition of acetonitrile and centrifugal separation to extract the administered test compound contained in the plasma. Each extracted sample was subjected to measurement of the concentration of administered test compound using LC/MS/MS (SHIMADZU UFLC/MS/MS (8050)).
# Test 2 [0.2 mg/kg Administration Study] […] The administration solution was administered orally to C57BL/6J mice (8 weeks old, male, n=3) at a single dose (0.2 mg/kg). Mice were euthanized at 6 points of 0.25, 0.5, 1, 2, 4, and 8 hours after administration, and plasma and brain sampling were performed. After preparing a homogenate from the collected brain using Tissue Lyser II (QIAGEN #85300), acetonitrile was added to the homogenate and the homogenate was centrifuged (12000 rpm, 5 minutes) to extract the administered compound contained in the brain. Similarly, the plasma was subjected to addition of acetonitrile and centrifugal separation to extract the administered test compound contained in the plasma. Each extracted sample was subjected to measurement of the concentration of administered test compound using LC/MS/MS (SHIMADZU UFLC/MS/MS (8050)).
# human VDR = molecular target: T1, human VDR (Homo sapiens, UniProt P11473); assay: Evaluation of VDR transcription activity in human osteoblasts (HOS cells), luciferase reporter; conditions: Activity (EC50, VDR transcription activity), HOS cells transfected with human VDR, human RXRα and DR3 luciferase reporter; 21 hours
# T1 sequence (P11473 1-427): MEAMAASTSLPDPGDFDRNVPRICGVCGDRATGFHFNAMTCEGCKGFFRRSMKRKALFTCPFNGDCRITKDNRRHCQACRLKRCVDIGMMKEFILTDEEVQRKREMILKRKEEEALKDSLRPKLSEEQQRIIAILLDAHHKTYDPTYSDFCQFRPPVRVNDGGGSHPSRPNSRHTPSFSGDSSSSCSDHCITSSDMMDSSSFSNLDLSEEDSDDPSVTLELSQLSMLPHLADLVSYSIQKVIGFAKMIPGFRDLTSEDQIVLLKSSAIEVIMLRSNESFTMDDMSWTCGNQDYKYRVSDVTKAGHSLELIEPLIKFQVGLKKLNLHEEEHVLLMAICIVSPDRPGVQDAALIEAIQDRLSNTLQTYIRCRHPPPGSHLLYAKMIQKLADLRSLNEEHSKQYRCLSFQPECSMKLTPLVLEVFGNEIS
# T1 sequence (P19793 1-462 partner): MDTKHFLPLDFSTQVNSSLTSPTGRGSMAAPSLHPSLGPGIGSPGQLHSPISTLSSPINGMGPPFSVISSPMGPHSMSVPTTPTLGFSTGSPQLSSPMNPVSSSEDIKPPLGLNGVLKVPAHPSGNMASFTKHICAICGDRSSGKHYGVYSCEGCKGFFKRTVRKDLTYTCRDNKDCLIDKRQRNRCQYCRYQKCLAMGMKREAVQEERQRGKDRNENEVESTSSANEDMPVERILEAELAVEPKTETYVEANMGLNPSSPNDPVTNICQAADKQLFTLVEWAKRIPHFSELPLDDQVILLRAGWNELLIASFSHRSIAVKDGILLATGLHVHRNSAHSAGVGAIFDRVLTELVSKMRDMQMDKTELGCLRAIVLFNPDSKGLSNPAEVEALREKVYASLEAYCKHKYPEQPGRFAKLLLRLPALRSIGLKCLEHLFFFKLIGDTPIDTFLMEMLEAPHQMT
SMILES,Concentration in blood (mean ± SD) at brain Cmax [1] [nM],Concentration in brain (mean ± SD) at brain Cmax [1] [pmol/g],Kp [1],EC50 (human VDR) [nM]
"C[C@H](CN1CCC(O)(C(F)(F)F)C1)[C@H]1CC[C@H]2/C(=C/C=C3C[C@@H](O)C[C@H](O)C3)CCC[C@]12C (single isomer, unassigned) [Compound B045a]",530 ± 97,185 ± 116,0.35,< 1
"C=C1/C(=C\C=C2/CCC[C@]3(C)[C@@H]([C@@H](C)CN4CC[C@H](F)C4)CC[C@@H]23)C[C@@H](O)C[C@@H]1O [Compound B018, (1R,3S,Z)-5-(2-((1R,3aS,7aR,E)-1-((R)-1-((S)-3-fluoropyrrolidin-1-yl)propan-2-yl)-7a-methyloctahydro-4H-inden-4-ylidene)ethylidene)-4-methylenecyclohexane-1,3-diol]",841 ± 197,533 ± 197,0.63,10 to 100
"C=C1/C(=C\C=C2/CCC[C@]3(C)[C@@H]([C@H](C)CN4CC[C@](C)(O)C4)CC[C@@H]23)C[C@@H](O)C[C@@H]1O [Compound B071, (1R,3S,Z)-5-(2-((1R,3aS,7aR,E)-1-((S)-1-((S)-3-hydroxy-3-methylpyrrolidin-1-yl)propan-2-yl)-7a-methyloctahydro-4H-inden-4-ylidene)ethylidene)-4-methylenecyclohexane-1,3-diol]",–,–,–,10 to 100
"C[C@H](CCN1CC(OC(F)(F)F)C1)[C@H]1CC[C@H]2/C(=C/C=C3C[C@@H](O)C[C@H](O)C3)CCC[C@]12C [Compound A028, (1R,3R)-5-(2-((1R,3aS,7aR,E)-7a-methyl-1-((R)-4-(3-(trifluoromethoxy)azetidin-1-yl)butan-2-yl)octahydro-4H-inden-4-ylidene)ethylidene)cyclohexane-1,3-diol]",–,–,–,100 to 1000
"C=C1/C(=C\C=C2/CCC[C@]3(C)[C@@H]([C@H](C)CN4CC[C@H](CC(F)F)C4)CC[C@@H]23)C[C@@H](O)[C@H](C)[C@@H]1O [Compound B038, (1R,2S,3S,Z)-5-(2-((1R,3aS,7aR,E)-1-((S)-1-((R)-3-(2,2-difluoroethyl)pyrrolidin-1-yl)propan-2-yl)-7a-methyloctahydro-4H-inden-4-ylidene)ethylidene)-2-methyl-4-methylenecyclohexane-1,3-diol]",–,–,–,10 to 100
"C[C@H](CCN1CC[C@@H](C(F)F)C1)[C@H]1CC[C@H]2/C(=C/C=C3C[C@@H](O)C[C@H](O)C3)CCC[C@]12C [Compound B081, (1R,3R)-5-(2-((1R,3aS,7aR,E)-1-((R)-4-((R)-3-(difluoromethyl)pyrrolidin-1-yl)butan-2-yl)-7a-methyloctahydro-4H-inden-4-ylidene)ethylidene)cyclohexane-1,3-diol]",–,–,–,10 to 100
"C=C1/C(=C\C=C2/CCC[C@]3(C)[C@@H]([C@H](C)CN4CC[C@@H](C(C)(F)F)C4)CC[C@@H]23)C[C@@H](O)C[C@@H]1O [Compound B032, (1R,3S,Z)-5-(2-((1R,3aS,7aR,E)-1-((S)-1-((R)-3-(1,1-difluoroethyl)pyrrolidin-1-yl)propan-2-yl)-7a-methyloctahydro-4H-inden-4-ylidene)ethylidene)-4-methylenecyclohexane-1,3-diol]",–,–,–,1 to 10
"C[C@@H](CN1CC[C@@H](C(C)(F)F)C1)[C@H]1CC[C@H]2/C(=C/C=C3CC(O)C[C@H](O)C3)CCC[C@]12C (stereo in doubt) [Compound B102, (1R,3S)-5-(2-((1R,3aS,7aR,E)-1-((R)-1-((R)-3-(1,1-difluoroethyl)pyrrolidin-1-yl)propan-2-yl)-7a-methyloctahydro-4H-inden-4-ylidene)ethylidene)cyclohexane-1,3-diol]",–,–,–,1 to 10

# Continued, values first:
Concentration in blood (mean ± SD) at brain Cmax [1] [nM],Concentration in brain (mean ± SD) at brain Cmax [1] [pmol/g],Kp [1],EC50 (human VDR) [nM],SMILES
402 ± 38,156 ± 14,0.39,10 to 100,"C[C@H](CN1CCC(O)(C(F)(F)F)CC1)[C@H]1CC[C@H]2/C(=C/C=C3C[C@@H](O)C[C@H](O)C3)CCC[C@]12C [Compound C002, (1R,3R)-5-(2-((1R,3aS,7aR,E)-1-((S)-1-(4-hydroxy-4-(trifluoromethyl)piperidin-1-yl)propan-2-yl)-7a-methyloctahydro-4H-inden-4-ylidene)ethylidene)cyclohexane-1,3-diol]"
510 ± 55,239 ± 23,0.47,< 1,C=C1/C(=C\C=C2/CCC[C@]3(C)[C@@H]([C@@H](C)CN4CCC(O)(C(F)(F)F)CC4)CC[C@@H]23)C[C@@H](O)[C@H](C)[C@@H]1O [Compound C006]
335 ± 85,614 ± 153,1.83,1 to 10,C=C1[C@H](O)CC(=C/C=C2\CCC[C@]3(C)[C@@H]([C@@H](C)CN4CCC(C(F)F)CC4)CC[C@@H]23)C[C@H]1O [Compound C019]
–,–,–,10 to 100,"C=C1/C(=C\C=C2/CCC[C@]3(C)[C@@H]([C@H](C)CN4CCO[C@H](C(F)F)C4)CC[C@@H]23)C[C@@H](O)C[C@@H]1O [Compound D005, (1R,3S,Z)-5-(2-((1R,3aS,7aR,E)-1-((S)-1-((S)-2-(difluoromethyl)morpholino)propan-2-yl)-7a-methyloctahydro-4H-inden-4-ylidene)ethylidene)-4-methylenecyclohexane-1,3-diol]"
–,–,–,10 to 100,"C=C1/C(=C\C=C2/CCC[C@]3(C)[C@@H]([C@H](C)CN4CCC(O)(C(F)(F)F)CC4)CC[C@@H]23)C[C@@H](O)[C@H](C)[C@@H]1O [Compound C003, (1R,2S,3S,Z)-5-(2-((1R,3aS,7aR,E)-1-((S)-1-(4-hydroxy-4-(trifluoromethyl)piperidin-1-yl)propan-2-yl)-7a-methyloctahydro-4H-inden-4-ylidene)ethylidene)-2-methyl-4-methylenecyclohexane-1,3-diol]"
–,–,–,1 to 10,"C=C1/C(=C\C=C2/CCC[C@]3(C)[C@@H]([C@H](C)CN4CCCC(C)(OC)C4)CC[C@@H]23)C[C@@H](O)C[C@@H]1O (single isomer, unassigned) [Compound C043a]"
–,–,–,1 to 10,"C=C1[C@H](O)CC(=C/C=C2\CCC[C@]3(C)[C@@H]([C@H](C)CN4CCCC(C)(OC)C4)CC[C@@H]23)C[C@H]1O (single isomer, unassigned) [Compound C047a]"
–,–,–,1 to 10,"C=C1/C(=C\C=C2/CCC[C@]3(C)[C@@H]([C@H](C)CN4CCCC(O)(C(F)(F)F)C4)CC[C@@H]23)C[C@@H](O)[C@H](C)[C@@H]1O (single isomer, unassigned) [Compound C031b]"
–,–,–,1 to 10,"C=C1/C(=C\C=C2/CCC[C@]3(C)[C@@H]([C@H](C)CN4CCC(O)(C(F)(F)F)CC4)CC[C@@H]23)C[C@@H](O)C[C@@H]1O [Compound C001, (1R,3S,Z)-5-(2-((1R,3aS,7aR,E)-1-((S)-1-(4-hydroxy-4-(trifluoromethyl)piperidin-1-yl)propan-2-yl)-7a-methyloctahydro-4H-inden-4-ylidene)ethylidene)-4-methylenecyclohexane-1,3-diol]"
–,–,–,100 to 1000,"C=C1/C(=C\C=C2/CCC[C@]3(C)[C@@H]([C@H](C)CN4CCCC(C)(OC)C4)CC[C@@H]23)C[C@@H](O)C[C@@H]1O (single isomer, unassigned) [Compound C043b]"
